Results as given in US8222404B2, “[1,2,4]Thiadiazin-3-yl acetic acid compound and methods of making the acetic acid compound” (Anadys Pharmaceuticals, Inc., priority 2008, dated 2012).

System: HCV Huh-luc/neo-ET replicon cells
Assay: Luciferase-Based HCV Replicon Assay (EC50 (1b))
Assay type: cell-based
Conditions: Hepatitis C virus, 72 hours exposure, luciferase activity
How it was run: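 Replicon cells seeded, then exposed 24 h later to a compound concentration series in triplicate for 72 h. Luciferase luminescence read; % inhibition vs no-compound control, with 100 nM BILN-2061 as background, used to derive EC50 (1b).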

SMILES | EC50
CS(=O)(=O)NCc1csc2c1S(=O)(=O)N=C(C1=C(O)[C@@H]3[C@H]4CC[C@H](C4)[C@@H]3NC1=O)N2 [Example 80, N-[3-((1R,2S,7R,8S)-6-Hydroxy-4-oxo-3-aza-tricyclo[6.2.1.0^2,7]undec-5-en-5-yl)-1,1-dioxo-1,4-dihydro-1λ^6-thieno[2,3-e][1,2,4]thiadiazin-7-ylmethyl]-methanesulfonamide] | > 1000 nM
CS(=O)(=O)NCc1csc2c1S(=O)(=O)N=C(C1=C(O)[C@@H]3[C@@H]4CC[C@@H](C4)[C@@H]3NC1=O)N2 [Example 81, N-[3-((1S,2S,7R,8R)-6-Hydroxy-4-oxo-3-aza-tricyclo[6.2.1.0^2,7]undec-5-en-5-yl)-1,1-dioxo-1,4-dihydro-1λ^6-thieno[2,3-e][1,2,4]thiadiazin-7-ylmethyl]-methanesulfonamide] | > 1000 nM
CS(=O)(=O)NCc1csc2c1S(=O)(=O)N=C(C1=C(O)[C@@H]3C4CCC(CC4)[C@@H]3NC1=O)N2 [Example 82, N-[3-((2S,7R)-6-Hydroxy-4-oxo-3-aza-tricyclo[6.2.2.0^2,7]dodec-5-en-5-yl)-1,1-dioxo-1,4-dihydro-1λ^6-thieno[2,3-e][1,2,4]thiadiazin-7-ylmethyl]-methanesulfonamide] | > 1000 nM
CS(=O)(=O)NCc1csc2c1S(=O)(=O)N=C(C1=C(O)[C@@H]3CCC[C@@H]3NC1=O)N2 [Example 85, (4aR,7aS)-N-[3-(4-Hydroxy-2-oxo-2,4a,5,6,7,7a-hexahydro-1H-[1]pyrindin-3-yl)-1,1-dioxo-1,4-dihydro-1λ^6-thieno[2,3-e][1,2,4]thiadiazin-7-ylmethyl]-methanesulfonamide] | > 1000 nM
CS(=O)(=O)NCc1csc2c1S(=O)(=O)N=C(C1=C(O)[C@@H]3[C@H]4CC[C@H](C4)[C@@H]3N(Cc3ccc(F)c(F)c3)C1=O)N2 [Example 88, N-{3-[(1R,2S,7R,8S)-3-(3,4-Difluoro-benzyl)-6-hydroxy-4-oxo-3-aza-tricyclo[6.2.1.0^2,7]undec-5-en-5-yl]-1,1-dioxo-1,4-dihydro-1λ^6-thieno[2,3-e][1,2,4]thiadiazin-7-ylmethyl}-methanesulfonamide] | ≤ 5 nM
CS(=O)(=O)NCc1csc2c1S(=O)(=O)N=C(C1=C(O)[C@@H]3[C@@H]4CC[C@@H](C4)[C@@H]3N(Cc3ccc(F)cc3)C1=O)N2 [Example 89, N-{3-[(1S,2S,7R,8R)-3-(4-Fluoro-benzyl)-6-hydroxy-4-oxo-3-aza-tricyclo[6.2.1.0^2,7]undec-5-en-5-yl]-1,1-dioxo-1,4-dihydro-1λ^6-thieno[2,3-e][1,2,4]thiadiazin-7-ylmethyl}-methanesulfonamide] | ≤ 5 nM
CS(=O)(=O)NCc1csc2c1S(=O)(=O)N=C(C1=C(O)[C@@H]3C4CCC(CC4)[C@@H]3N(Cc3ccc(F)cc3)C1=O)N2 [Example 91, N-{3-[(2S,7R)-3-(4-Fluoro-benzyl)-6-hydroxy-4-oxo-3-aza-tricyclo[6.2.2.0^2,7]dodec-5-en-5-yl]-1,1-dioxo-1,4-dihydro-1λ^6-thieno[2,3-e][1,2,4]thiadiazin-7-ylmethyl}-methanesulfonamide] | ≤ 5 nM
CS(=O)(=O)NCc1csc2c1S(=O)(=O)N=C(C1=C(O)[C@@H]3C4CCC(CC4)[C@@H]3N(Cc3ccc(F)c(F)c3)C1=O)N2 [Example 92, N-{3-[(2S,7R)-3-(3,4-Difluoro-benzyl)-6-hydroxy-4-oxo-3-aza-tricyclo[6.2.2.0^2,7]dodec-5-en-5-yl]-1,1-dioxo-1,4-dihydro-1λ^6-thieno[2,3-e][1,2,4]thiadiazin-7-ylmethyl}-methanesulfonamide] | ≤ 5 nM
CC(C)(C)CCN1C(=O)C(C2=NS(=O)(=O)c3c(CNS(C)(=O)=O)csc3N2)=C(O)[C@@H]2C3CCC(CC3)[C@@H]21 [Example 93, N-{3-[(2S,7R)-3-(3,3-Dimethyl-butyl)-6-hydroxy-4-oxo-3-aza-tricyclo[6.2.2.0^2,7]dodec-5-en-5-yl]-1,1-dioxo-1,4-dihydro-1λ^6-thieno[2,3-e][1,2,4]thiadiazin-7-ylmethyl}-methanesulfonamide] | ≤ 5 nM
